Ten cell lines from the supplement of paper PMC10307832 can be followed below.

Common to all, as to assay: relative viability (nuclei count vs DMSO), 5 days (fraction); higher = more cells survive
Compound in assay [1]: C1=CC=C(C(=C1)C2=CC=C(C=C2)C3=CSC4=C3C(=C(C(=O)N4)C#N)O)O + COc1cc2c(Oc3ccc(NC(=O)C4(C(=O)Nc5ccc(F)cc5)CC4)cc3F)ccnc2cc1OCCCN1CCOCC1 [Foretinib] (partner 0.25 µM)
Summed up:
(§1)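 For relative viability, nuclei counts in treated wells were divided by those in vehicle wells. Lung cancer cell lines had been pin-tool dosed in 1536-well plates the day after seeding and cultured for 5 days, then fixed and stained in one step (final 0.05% Triton X-100, 1% formaldehyde, 1 ug/ml Hoechst) and imaged at 4×. Doses were one drug alone or a fixed anchor-drug dose plus five library-drug doses (not always all listed) in √10 steps, and values are duplicate-plate medians.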

Compound in the assay “TGX 221 + Tozasertib”: CC1=CN2C(=O)C=C(N=C2C(=C1)C(C)NC3=CC=CC=C3)N4CCOCC4 [TGX 221] + Cc1cc(Nc2cc(N3CCN(C)CC3)nc(Sc3ccc(NC(=O)C4CC4)cc3)n2)n[nH]1 [Tozasertib] (partner 0.1 µM)
A digest of the protocol: as §1

Compound in the assay “TGX 221 + Decitabine”: CC1=CN2C(=O)C=C(N=C2C(=C1)C(C)NC3=CC=CC=C3)N4CCOCC4 [TGX 221] + Nc1ncn([C@H]2C[C@H](O)[C@@H](CO)O2)c(=O)n1 [Decitabine] (partner 2 µM)
Summed up:
as §1

Compound in assay [2]: C1=CC=C(C(=C1)C2=CC=C(C=C2)C3=CSC4=C3C(=C(C(=O)N4)C#N)O)O + CS(=O)(=O)CCNCc1ccc(-c2ccc3ncnc(Nc4ccc(OCc5cccc(F)c5)c(Cl)c4)c3c2)o1 [Lapatinib] (partner 2 µM)
A digest of the protocol: as §1

As for NCI-H1623, the relative viability in assay [1] (first compound 0.08 µM) is 0.915; in assay [1] (first compound 0.253 µM) it was 0.971; in assay [1] (first compound 0.8 µM) it was 0.864; in assay [1] (first compound 2.53 µM), 0.889; in assay [1] (first compound 8 µM) it was 0.798; with TGX 221 + Tozasertib (first compound 0.08 µM), 0.446. Moreover, the relative viability with TGX 221 + Tozasertib (first compound 0.253 µM) was determined as 0.404; with TGX 221 + Tozasertib (first compound 0.8 µM) it was 0.472; with TGX 221 + Tozasertib (first compound 2.53 µM), 0.466; with TGX 221 + Tozasertib (first compound 8 µM) it was 0.419.
NCI-H1648: the relative viability in the assay with TGX 221 + Tozasertib (first compound 0.08 µM) was found to be 0.422; in the assay with TGX 221 + Tozasertib (first compound 0.8 µM), 0.563; with TGX 221 + Tozasertib (first compound 2.53 µM), 0.406; with TGX 221 + Tozasertib (first compound 8 µM), 0.45; in the assay with TGX 221 + Decitabine (first compound 0.253 µM) it was 0.554; with TGX 221 + Decitabine (first compound 0.8 µM) it was 0.499. Further, the relative viability was found to be 0.474 in the assay with TGX 221 + Decitabine (first compound 2.53 µM) and 0.523 with TGX 221 + Decitabine (first compound 8 µM).
As to NCI-H1563, the relative viability in assay [1] (first compound 0.08 µM) turned out to be 0.972; in assay [1] (first compound 0.253 µM), 0.862; in assay [1] (first compound 0.8 µM), 0.947; in assay [1] (first compound 2.53 µM), 0.861; in assay [1] (first compound 8 µM) it was 0.927; in assay [2] (first compound 0.08 µM), 0.715. Further, the relative viability in assay [2] (first compound 0.253 µM) was found to be 0.868; in assay [2] (first compound 0.8 µM), 1.01; in assay [2] (first compound 2.53 µM), 0.881; in assay [2] (first compound 8 µM), 0.989.
Calu-6: the relative viability was determined as 0.985 in assay [1] (first compound 0.08 µM); 0.967 in assay [1] (first compound 0.253 µM); 0.909 in assay [1] (first compound 0.8 µM); 0.94 in assay [1] (first compound 2.53 µM); 0.773 in assay [1] (first compound 8 µM); 1.03 in assay [2] (first compound 0.08 µM). In addition, the relative viability in assay [2] (first compound 0.253 µM) was 1.03; in assay [2] (first compound 0.8 µM), 1.21; in assay [2] (first compound 2.53 µM) it was 1.27; in assay [2] (first compound 8 µM), 1.03.
Regarding NCI-H2228, the relative viability in assay [1] (first compound 0.08 µM) is 0.764; in assay [1] (first compound 0.253 µM) it was 0.871; in assay [1] (first compound 0.8 µM) it was 0.96; in assay [1] (first compound 2.53 µM), 0.847; in assay [1] (first compound 8 µM), 0.588; with TGX 221 + Tozasertib (first compound 0.08 µM) it was 0.251. The relative viability amounted to 0.262 with TGX 221 + Tozasertib (first compound 0.253 µM); 0.261 with TGX 221 + Tozasertib (first compound 0.8 µM); 0.215 with TGX 221 + Tozasertib (first compound 2.53 µM); 0.167 in the assay with TGX 221 + Tozasertib (first compound 8 µM); 0.701 in assay [2] (first compound 0.08 µM); 1.33 in assay [2] (first compound 0.253 µM). In addition, the figures for the relative viability in assay [2] (first compound 0.8 µM), in assay [2] (first compound 2.53 µM) and in assay [2] (first compound 8 µM) were 0.814, 0.998 and 1.1, respectively.
NCI-H441: the relative viability in assay [1] (first compound 0.08 µM) amounted to 1.07; in assay [1] (first compound 0.253 µM) it was 1.15; in assay [1] (first compound 0.8 µM) it was 1; in assay [1] (first compound 2.53 µM), 1.27; in assay [1] (first compound 8 µM) it was 0.976; with TGX 221 + Tozasertib (first compound 0.08 µM), 0.605. Besides, the relative viability with TGX 221 + Tozasertib (first compound 0.253 µM) is 0.569; with TGX 221 + Tozasertib (first compound 0.8 µM), 0.737; with TGX 221 + Tozasertib (first compound 2.53 µM), 0.611; in the assay with TGX 221 + Tozasertib (first compound 8 µM) it was 0.695; with TGX 221 + Decitabine (first compound 0.08 µM), 0.226; with TGX 221 + Decitabine (first compound 0.253 µM) it was 0.239. Also, the relative viability in the assay with TGX 221 + Decitabine (first compound 0.8 µM) was 0.24; with TGX 221 + Decitabine (first compound 2.53 µM) it was 0.285; with TGX 221 + Decitabine (first compound 8 µM), 0.287.
Take A549: the relative viability is 0.688 in assay [1] (first compound 0.08 µM); 1.07 in assay [1] (first compound 0.253 µM); 0.971 in assay [1] (first compound 0.8 µM); 0.756 in assay [1] (first compound 2.53 µM); 0.649 in assay [1] (first compound 8 µM); 0.337 with TGX 221 + Decitabine (first compound 0.08 µM). The relative viability with TGX 221 + Decitabine (first compound 0.253 µM) worked out at 0.25; in the assay with TGX 221 + Decitabine (first compound 0.8 µM), 0.294; in the assay with TGX 221 + Decitabine (first compound 2.53 µM), 0.26; in the assay with TGX 221 + Decitabine (first compound 8 µM), 0.349; in assay [2] (first compound 0.08 µM), 1.01; in assay [2] (first compound 0.253 µM) it was 0.912. In addition, the relative viability came out at 1.06 in assay [2] (first compound 0.8 µM), 0.971 in assay [2] (first compound 2.53 µM) and 0.918 in assay [2] (first compound 8 µM).
For LCLC-103H, the relative viability in assay [1] (first compound 0.08 µM) is 0.78; in assay [1] (first compound 0.253 µM), 0.735; in assay [1] (first compound 0.8 µM), 0.93; in assay [1] (first compound 2.53 µM), 0.698; in assay [1] (first compound 8 µM), 0.587; in the assay with TGX 221 + Tozasertib (first compound 0.08 µM) it was 0.409. Further, the relative viability with TGX 221 + Tozasertib (first compound 0.253 µM) came out at 0.466; in the assay with TGX 221 + Tozasertib (first compound 0.8 µM), 0.465; with TGX 221 + Tozasertib (first compound 2.53 µM) it was 0.434; with TGX 221 + Tozasertib (first compound 8 µM), 0.354; in the assay with TGX 221 + Decitabine (first compound 0.08 µM) it was 0.777; in the assay with TGX 221 + Decitabine (first compound 0.253 µM) it was 0.704. Moreover, the values for the relative viability in the assay with TGX 221 + Decitabine (first compound 0.8 µM), with TGX 221 + Decitabine (first compound 2.53 µM) and with TGX 221 + Decitabine (first compound 8 µM) were 0.677, 0.725 and 0.754, respectively.
For HCC-44, the relative viability with TGX 221 + Tozasertib (first compound 0.253 µM) is 0.947; in the assay with TGX 221 + Tozasertib (first compound 0.8 µM), 1.03; with TGX 221 + Tozasertib (first compound 2.53 µM) it was 0.92; in the assay with TGX 221 + Tozasertib (first compound 8 µM), 0.695; in the assay with TGX 221 + Decitabine (first compound 0.08 µM), 0.921; in the assay with TGX 221 + Decitabine (first compound 0.253 µM), 0.957. Besides, the relative viability was found to be 1.03 in the assay with TGX 221 + Decitabine (first compound 0.8 µM); 1.04 with TGX 221 + Decitabine (first compound 2.53 µM); 1.02 with TGX 221 + Decitabine (first compound 8 µM); 0.863 in assay [2] (first compound 0.08 µM); 1.07 in assay [2] (first compound 0.253 µM); 0.928 in assay [2] (first compound 0.8 µM). The relative viability in assay [2] (first compound 2.53 µM) was determined as 1.02; in assay [2] (first compound 8 µM), 0.993.
In the case of IA-LM, the relative viability in assay [1] (first compound 0.08 µM) was found to be 0.893; in assay [1] (first compound 0.253 µM), 1.35; in assay [1] (first compound 0.8 µM) it was 1.01; in assay [1] (first compound 2.53 µM), 1.41; in assay [1] (first compound 8 µM) it was 1.14; in assay [2] (first compound 0.08 µM), 0.538. Besides, the relative viability is 0.413 in assay [2] (first compound 0.253 µM), 0.599 in assay [2] (first compound 0.8 µM), 0.952 in assay [2] (first compound 2.53 µM) and 0.537 in assay [2] (first compound 8 µM).
